From PubChem BioAssay AID1845202 (Molecular Pharmacology Branch, DTP, NCI, 2023)

Tested on: DMS 114 tumor spheroids, viability % test/control
Test: Anticancer human tumor DMS 114 cell line growth inhibition;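 note: spheroids exposed to compounds for 7 days before read-out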;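 for viability, T/C: luminescence used as a proxy for viable cells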
Conditions: spheroids with HUVEC and MSC; for IC50: curve of first compound; for viability, T/C: stronger effect = lower value
In short: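 Single agents and combinations were tested on spheroids built from tumor cells plus HUVEC and hMSC, at half-log dilutions starting at or near clinical Cmax, else 10 microM; final DMSO 0.25% (v/v).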

[1] = second compound 30 pM, first compound 0.0316 µM
[2] = second compound 30 pM, first compound 0.1 µM
[3] = second compound 30 pM, first compound 0.316 µM
[4] = second compound 30 pM, first compound 1 µM
[5] = second compound 30 pM, first compound 3.16 µM
[6] = second compound 30 pM, first compound 10 µM
[7] = second compound 94.9 pM, first compound 0.0316 µM
[8] = second compound 94.9 pM, first compound 0.1 µM
[9] = second compound 94.9 pM, first compound 0.316 µM
[10] = second compound 94.9 pM, first compound 1 µM
[11] = second compound 94.9 pM, first compound 3.16 µM
[12] = second compound 94.9 pM, first compound 10 µM
[13] = second compound 0.0003 µM, first compound 0.0316 µM
[14] = second compound 0.0003 µM, first compound 0.1 µM
[15] = second compound 0.0003 µM, first compound 0.316 µM
[16] = second compound 0.0003 µM, first compound 1 µM
[17] = second compound 0.0003 µM, first compound 3.16 µM
[18] = second compound 0.0003 µM, first compound 10 µM
[19] = second compound 0.000949 µM, first compound 0.0316 µM
[20] = second compound 0.000949 µM, first compound 0.1 µM
[21] = second compound 0.000949 µM, first compound 0.316 µM
[22] = second compound 0.000949 µM, first compound 1 µM
[23] = second compound 0.000949 µM, first compound 3.16 µM
[24] = second compound 0.000949 µM, first compound 10 µM
[25] = second compound 0.003 µM, first compound 0.0316 µM
[26] = second compound 0.003 µM, first compound 0.1 µM
[27] = second compound 0.003 µM, first compound 0.316 µM
[28] = second compound 0.003 µM, first compound 1 µM
[29] = second compound 0.003 µM, first compound 3.16 µM
[30] = second compound 0.003 µM, first compound 10 µM

What does the source list for `CC(C)n1c(=O)n(C)c2cnc3cc(F)c(-c4ccc(OCCCN5CCCCC5)nc4)cc3c21` + COc1cc2c(cc1O)CCNC21CSC2c3c(OC(C)=O)c(C)c4c(c3C(COC1=O)N1C(O)C3Cc5cc(C)c(OC)c(O)c5C(C21)N3C)OCO4?
IC50 (second compound 30 pM): 4100 nM; IC50 (second compound 94.9 pM): 1600 nM; IC50 (second compound 0.0003 µM): < 31.6 nM; IC50 (second compound 0.000949 µM): < 31.6 nM; IC50 (second compound 0.003 µM): < 31.6 nM; viability, T/C [1]: 75.2%; viability, T/C [2]: 102%; viability, T/C [3]: 91.9%; viability, T/C [4]: 84.7%; viability, T/C [5]: 59%; viability, T/C [6]: 19.2%; viability, T/C [7]: 63%; viability, T/C [8]: 52.2%; viability, T/C [9]: 54.2%; viability, T/C [10]: 58.5%; viability, T/C [11]: 42.3%; viability, T/C [12]: 16.5%; viability, T/C [13]: 21.9%; viability, T/C [14]: 23.5%; viability, T/C [15]: 22.8%; viability, T/C [16]: 20.6%; viability, T/C [17]: 22.3%; viability, T/C [18]: 8.07%; viability, T/C [19]: 2.63%; viability, T/C [20]: 2.62%; viability, T/C [21]: 2.73%; viability, T/C [22]: 5.38%; viability, T/C [23]: 2.74%; viability, T/C [24]: 1.03%; viability, T/C [25]: 0.2%; viability, T/C [26]: 0.22%; viability, T/C [27]: 0.17%; viability, T/C [28]: 0.14%; viability, T/C [29]: 0.12%; viability, T/C [30]: 0.23%

Which IC50 (second compound 30 pM) does the source give for `COc1ccc([C@@H](O)c2cc(-c3ncnc4cc(N5CCOCC5)ccc34)c(F)cc2Cl)nn1` + COc1cc2c(cc1O)CCNC21CSC2c3c(OC(C)=O)c(C)c4c(c3C(COC1=O)N1C(O)C3Cc5cc(C)c(OC)c(O)c5C(C21)N3C)OCO4 here?
Its IC50 is 4790 nM.

What about the IC50 (second compound 94.9 pM) of the same compound?
Its IC50 is 1680 nM.

What about the IC50 (second compound 0.0003 µM) of the same compound?
Its IC50 is under 31.6 nM.

What about the IC50 (second compound 0.000949 µM) of the same compound?
The IC50 was under 31.6 nM.

What about the IC50 (second compound 0.003 µM) of the same compound?
The IC50 was under 31.6 nM.

And the viability, T/C [1]?
The viability, T/C was 113%.

What about the viability, T/C [2] of the same compound?
The viability, T/C was 99.8%.

And the viability, T/C [3]?
Its viability, T/C is 102%.

What about the viability, T/C [4] of the same compound?
Its viability, T/C is 96.7%.

And the viability, T/C [5]?
The viability, T/C was 63.7%.

And the viability, T/C [6]?
Its viability, T/C is 25.1%.

What about the viability, T/C [7] of the same compound?
Its viability, T/C is 108%.

And the viability, T/C [8]?
Its viability, T/C is 101%.

And the viability, T/C [9]?
The viability, T/C was 92.9%.

And the viability, T/C [10]?
Its viability, T/C is 65.2%.

What about the viability, T/C [11] of the same compound?
Its viability, T/C is 31.3%.

And the viability, T/C [12]?
Its viability, T/C is 13.3%.

And the viability, T/C [13]?
The viability, T/C was 39.6%.

What about the viability, T/C [14] of the same compound?
Its viability, T/C is 37.6%.

What about the viability, T/C [15] of the same compound?
The viability, T/C was 35.7%.

And the viability, T/C [16]?
The viability, T/C was 13.4%.

What about the viability, T/C [17] of the same compound?
Its viability, T/C is 5.07%.

What about the viability, T/C [18] of the same compound?
The viability, T/C was 2.36%.

And the viability, T/C [19]?
The viability, T/C was 3.78%.

And the viability, T/C [20]?
The viability, T/C was 3.32%.

And the viability, T/C [21]?
Its viability, T/C is 1.74%.

And the viability, T/C [22]?
The viability, T/C was 0.47%.

And the viability, T/C [23]?
The viability, T/C was 0.07%.

And the viability, T/C [24]?
Its viability, T/C is 0.17%.

What about the viability, T/C [25] of the same compound?
Its viability, T/C is 0.25%.

And the viability, T/C [26]?
The viability, T/C was 0.28%.

What about the viability, T/C [27] of the same compound?
Its viability, T/C is 0.28%.

And the viability, T/C [28]?
Its viability, T/C is 0.31%.

And the viability, T/C [29]?
Its viability, T/C is 0.29%.

And the viability, T/C [30]?
Its viability, T/C is 0.36%.

`O=C(c1cc(Cc2n[nH]c(=O)c3ccccc23)ccc1F)N1CCN(C(=O)C2CC2)CC1` + Cn1nnc2c(C(N)=O)ncn2c1=O was tested. Which IC50 (second compound 1 µM) did it give?
The IC50 was 20000 nM.

And the IC50 (second compound 3.16 µM)?
The IC50 was 21900 nM.

What about the IC50 (second compound 10 µM) of the same compound?
The IC50 was 10200 nM.

What about the IC50 (second compound 31.6 µM) of the same compound?
Its IC50 is 2660 nM.

What about the IC50 (second compound 100 µM) of the same compound?
The IC50 was 252 nM.

And the viability, T/C (second compound 1 µM, first compound 0.0949 µM)?
Its viability, T/C is 106%.

And the viability, T/C (second compound 1 µM, first compound 0.3 µM)?
Its viability, T/C is 99.2%.

What about the viability, T/C (second compound 1 µM, first compound 0.949 µM) of the same compound?
The viability, T/C was 105%.

And the viability, T/C (second compound 1 µM, first compound 3 µM)?
The viability, T/C was 106%.

And the viability, T/C (second compound 1 µM, first compound 9.49 µM)?
Its viability, T/C is 73.9%.

And the viability, T/C (second compound 1 µM, first compound 30 µM)?
Its viability, T/C is 37%.

What about the viability, T/C (second compound 3.16 µM, first compound 0.0949 µM) of the same compound?
The viability, T/C was 112%.

What about the viability, T/C (second compound 3.16 µM, first compound 0.3 µM) of the same compound?
Its viability, T/C is 109%.

What about the viability, T/C (second compound 3.16 µM, first compound 0.949 µM) of the same compound?
The viability, T/C was 108%.

And the viability, T/C (second compound 3.16 µM, first compound 3 µM)?
Its viability, T/C is 102%.

And the viability, T/C (second compound 3.16 µM, first compound 9.49 µM)?
The viability, T/C was 68.5%.

What about the viability, T/C (second compound 3.16 µM, first compound 30 µM) of the same compound?
Its viability, T/C is 43.1%.

And the viability, T/C (second compound 10 µM, first compound 0.0949 µM)?
The viability, T/C was 120%.

And the viability, T/C (second compound 10 µM, first compound 0.3 µM)?
Its viability, T/C is 111%.

And the viability, T/C (second compound 10 µM, first compound 0.949 µM)?
The viability, T/C was 118%.

And the viability, T/C (second compound 10 µM, first compound 3 µM)?
Its viability, T/C is 81.6%.

What about the viability, T/C (second compound 10 µM, first compound 9.49 µM) of the same compound?
Its viability, T/C is 54.3%.

And the viability, T/C (second compound 10 µM, first compound 30 µM)?
Its viability, T/C is 30.1%.

And the viability, T/C (second compound 31.6 µM, first compound 0.0949 µM)?
Its viability, T/C is 110%.

What about the viability, T/C (second compound 31.6 µM, first compound 0.3 µM) of the same compound?
The viability, T/C was 103%.

And the viability, T/C (second compound 31.6 µM, first compound 0.949 µM)?
Its viability, T/C is 83.7%.

What about the viability, T/C (second compound 31.6 µM, first compound 3 µM) of the same compound?
Its viability, T/C is 46.2%.

And the viability, T/C (second compound 31.6 µM, first compound 9.49 µM)?
Its viability, T/C is 28.1%.

What about the viability, T/C (second compound 31.6 µM, first compound 30 µM) of the same compound?
Its viability, T/C is 25.8%.

What about the viability, T/C (second compound 100 µM, first compound 0.0949 µM) of the same compound?
The viability, T/C was 60.2%.

What about the viability, T/C (second compound 100 µM, first compound 0.3 µM) of the same compound?
Its viability, T/C is 48.7%.

What about the viability, T/C (second compound 100 µM, first compound 0.949 µM) of the same compound?
Its viability, T/C is 32.9%.

And the viability, T/C (second compound 100 µM, first compound 3 µM)?
Its viability, T/C is 25.4%.

And the viability, T/C (second compound 100 µM, first compound 9.49 µM)?
The viability, T/C was 21.1%.

And the viability, T/C (second compound 100 µM, first compound 30 µM)?
Its viability, T/C is 19%.
